Key:
Human SGLT2 (hSGLT2) = Human SGLT2 (hSGLT2) (Homo sapiens (Human), UniProt P31639); assay: Inhibitory effects on human SGLT2 activities (14C-AMG uptake, sodium-dependent glucose transport assay); type: cell-based; details: hSGLT2-expressing CHO cells, 37° C. for 2 h, single determinations
From the text: Test 1: Cloning and Cell Line Construction for Human SGLT2
Human SGLT2 (hSGLT2) gene was amplified by PCR from cDNA-Human Adult Normal Tissue Kidney (Invitrogen). The hSGLT2 sequence was cloned into pcDNA3.1(+) for mammalian expression and stably transfected into chinese hamster ovary (CHO) cells. SGLT2-expressing clones were selected based on resistance to G418 antibiotic (Geneticin) and activity in the ^14C-α-methyl-D-glucopyranoside (^14C-AMG) uptake assay.
Test 2: Inhibitory Effects on Human SGLT2 Activities
(§1) For sodium-dependent glucose transport assay, cells expressing hSGLT2 were seeded into a 96-well culture plate at a density of 5×10^4 cells/well in RPMI medium 1640 containing 10% fetal bovine serum. The cells were used 1 day after plating. They were incubated in pretreatment buffer (10 mM HEPES, 5 mM Tris, 140 mM choline chloride, 2 mM KCl, 1 mM CaCl2, and 1 mM MgCl2, pH 7.4) at 37° C. for 10 min. They were then incubated in uptake buffer (10 mM HEPES, 5 mM Tris, 140 mM NaCl, 2 mM KCl, 1 mM CaCl2, 1 mM MgCl2, and 1 mM ^14C-nonlabeled AMG pH 7.4) containing ^14C-labeled AMG (8 μM) and the inventive compound or dimethyl sulfoxide (DMSO) vehicle at 37° C. for 2 h. Cells were washed twice with washing buffer (pretreatment buffer containing 10 mM AMG at room temperature) and then the radioactivity was measured using a liquid scintillation counter. IC50 was determined by nonlinear regression analysis using GraphPad PRISM [Katsuno, K. et al. J. Pharmacol. Exp. Ther. 2007, 320, 323-330; Han, S. et al. Diabetes, 2008, 57, 1723-1729].

Human SGLT1 (hSGLT1) = Human SGLT1 (hSGLT1) (Homo sapiens (Human), UniProt P13866); assay: Inhibitory effects on human SGLT1 activities (14C-AMG uptake, sodium-dependent glucose transport assay); type: cell-based; details: 37° C. for 2 h, single determinations
Chain of Human SGLT1 (hSGLT1) (P13866 whole entry): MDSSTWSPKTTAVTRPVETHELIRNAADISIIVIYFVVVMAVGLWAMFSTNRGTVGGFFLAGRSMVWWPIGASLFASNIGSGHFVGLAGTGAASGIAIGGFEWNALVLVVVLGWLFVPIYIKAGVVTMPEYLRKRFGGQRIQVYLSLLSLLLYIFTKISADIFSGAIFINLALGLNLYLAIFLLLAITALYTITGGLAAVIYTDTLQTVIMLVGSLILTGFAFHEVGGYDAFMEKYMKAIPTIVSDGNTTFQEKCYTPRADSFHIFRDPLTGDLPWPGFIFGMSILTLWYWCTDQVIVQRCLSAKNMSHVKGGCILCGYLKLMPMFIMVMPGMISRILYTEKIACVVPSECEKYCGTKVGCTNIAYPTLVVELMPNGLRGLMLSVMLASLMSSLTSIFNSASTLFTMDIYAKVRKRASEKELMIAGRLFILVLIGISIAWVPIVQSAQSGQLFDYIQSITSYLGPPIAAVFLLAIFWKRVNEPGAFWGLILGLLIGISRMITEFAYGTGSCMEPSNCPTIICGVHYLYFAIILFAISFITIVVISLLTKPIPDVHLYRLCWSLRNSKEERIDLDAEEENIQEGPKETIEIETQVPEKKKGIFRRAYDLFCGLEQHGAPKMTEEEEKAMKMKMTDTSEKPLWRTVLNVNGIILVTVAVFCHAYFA
Protocol: Test 3: Inhibitory Effects on Human SGLT1 Activities
as §1, with “^14C-labeled” for “^14C-labeled AMG”, “inhibitor” for “the inventive compound”, “PRISM.” for “PRISM [Katsuno, K. et al. J. Pharmacol. Exp. Ther. 2007, 320, 323-330; Han, S. et al. Diabetes, 2008, 57, 1723-1729].”

Chain of Human SGLT2 (hSGLT2) (P31639 whole entry): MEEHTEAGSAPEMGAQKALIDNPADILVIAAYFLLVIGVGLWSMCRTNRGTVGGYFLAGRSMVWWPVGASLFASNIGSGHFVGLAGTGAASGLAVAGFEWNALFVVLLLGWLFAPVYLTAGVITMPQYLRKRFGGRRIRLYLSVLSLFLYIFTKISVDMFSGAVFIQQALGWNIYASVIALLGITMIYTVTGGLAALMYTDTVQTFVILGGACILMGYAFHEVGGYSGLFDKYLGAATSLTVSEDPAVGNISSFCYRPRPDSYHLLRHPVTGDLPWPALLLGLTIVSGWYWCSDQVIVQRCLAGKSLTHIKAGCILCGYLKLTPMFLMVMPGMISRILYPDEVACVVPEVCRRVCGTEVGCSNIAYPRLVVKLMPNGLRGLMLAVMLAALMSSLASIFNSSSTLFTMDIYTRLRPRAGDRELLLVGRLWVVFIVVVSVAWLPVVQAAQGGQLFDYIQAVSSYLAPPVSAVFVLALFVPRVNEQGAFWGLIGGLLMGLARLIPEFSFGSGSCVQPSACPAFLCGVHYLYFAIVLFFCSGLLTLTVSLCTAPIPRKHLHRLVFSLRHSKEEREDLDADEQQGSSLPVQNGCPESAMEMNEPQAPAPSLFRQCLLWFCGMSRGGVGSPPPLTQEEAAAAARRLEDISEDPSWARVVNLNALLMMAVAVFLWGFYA

SMILES	IC50 (Human SGLT2 (hSGLT2)) [nM]	IC50 (Human SGLT1 (hSGLT1)) [nM]
Cc1ccc(Cc2cc([C@@H]3O[C@H](CO)[C@@H](O)[C@H](O)[C@H]3O)c3c(c2Cl)OCO3)cc1 [Compound E040, (2S,3R,4R,5S,6R)-2-(7-Chloro-6-(4-methylbenzyl)benzo[d][1,3]dioxol-4-yl)-6-(hydroxymethyl)tetrahydro-2H-pyran-3,4,5-triol]	1	94.6
Cc1ccc(Cc2cc3c(c([C@@H]4O[C@H](CO)[C@@H](O)[C@H](O)[C@H]4O)c2)CCC3)cc1 [Compound E041, (2R,3S,4R,5R,6S)-2-(Hydroxymethyl)-6-(6-(4-methylbenzyl)-2,3-dihydro-1H-inden-4-yl)tetrahydro-2H-pyran-3,4,5-triol]	8	91
Cc1ccc(Cc2cc([C@@H]3O[C@H](CO)[C@@H](O)[C@H](O)[C@H]3O)c3c(c2Cl)OCCO3)cc1 [Compound E042, (2S,3R,4R,5S,6R)-2-(8-chloro-7-(4-methylbenzyl)-2,3-dihydrobenzo[b][1,4]dioxin-5-yl)-6-(hydroxymethyl)tetrahydro-2H-pyran-3,4,5-triol]	1	9.2
CCc1ccc(Cc2cc([C@@H]3O[C@H](CO)[C@@H](O)[C@H](O)[C@H]3O)c3c(c2Cl)CCCC3)cc1 [Compound E043, (2S,3R,4R,5S,6R)-2-(4-Chloro-3-(4-ethylbenzyl)-5,6,7,8-tetrahydronaphthalen-1-yl)-6-(hydroxymethyl)tetrahydro-2H-pyran-3,4,5-triol]	0.49	32.6
CCc1ccc(Cc2cc([C@@H]3O[C@H](CO)[C@@H](O)[C@H](O)[C@H]3O)c3c(c2C)CCCC3)cc1 [Compound E044, (2S,3R,4R,5S,6R)-2-(3-(4-Ethylbenzyl)-4-methyl-5,6,7,8-tetrahydronaphthalen-1-yl)-6-(hydroxymethyl)tetrahydro-2H-pyran-3,4,5-triol]	0.59	10.4
Cc1ccc(Cc2cc([C@@H]3O[C@H](CO)[C@@H](O)[C@H](O)[C@H]3O)c3c(c2Cl)OCCC3)cc1 [Compound E045, (2S,3R,4R,5S,6R)-2-(8-Chloro-7-(4-methylbenzyl)chroman-5-yl)-6-(hydroxymethyl)tetrahydro-2H-pyran-3,4,5-triol]	1.9	36.7
Cc1ccc(Cc2cc([C@@H]3O[C@H](CO)[C@@H](O)[C@H](O)[C@H]3O)c3c(c2Cl)CCO3)cc1 [Compound E046, (2S,3R,4R,5S,6R)-2-(4-Chloro-5-(4-methylbenzyl)-2,3-dihydrobenzofuran-7-yl)-6-(hydroxymethyl)tetrahydro-2H-pyran-3,4,5-triol]	1.4	29.9
CCOc1ccc(Cc2cc([C@@H]3O[C@H](CO)[C@@H](O)[C@H](O)[C@H]3O)c3c(c2C)CCCC3)cc1 [Compound E047, (2S,3R,4R,5S,6R)-2-(3-(4-Ethoxybenzyl)-4-methyl-5,6,7,8-tetrahydronaphthalen-1-yl)-6-(hydroxymethyl)tetrahydro-2H-pyran-3,4,5-triol]	1.3	27.1
COc1ccc(Cc2cc([C@@H]3O[C@H](SC)[C@@H](O)[C@H](O)[C@H]3O)c3c(c2Cl)CCC3)cc1 [Compound E048, (2S,3R,4R,5S,6R)-2-(7-Chloro-6-(4-methoxybenzyl)-2,3-dihydro-1H-inden-4-yl)-6-(methylthio)tetrahydro-2H-pyran-3,4,5-triol]	0.5	33.7
CSc1ccc(Cc2cc([C@@H]3O[C@H](CO)[C@@H](O)[C@H](O)[C@H]3O)c3c(c2Cl)OCO3)cc1 [Compound E049, (2S,3R,4R,5S,6R)-2-(7-Chloro-6-(4-(methylthio)benzyl)benzo[d][1,3]dioxol-4-yl)-6-(hydroxymethyl)tetrahydro-2H-pyran-3,4,5-triol]	0.8	50.3
CSc1ccc(Cc2cc([C@@H]3O[C@H](CO)[C@@H](O)[C@H](O)[C@H]3O)c3c(c2Cl)OCCO3)cc1 [Compound E050, (2S,3R,4R,5S,6R)-2-(8-Chloro-7-(4-(methylthio)benzyl)-2,3-dihydrobenzo[b][1,4]dioxin-5-yl)-6-(hydroxymethyl)tetrahydro-2H-pyran-3,4,5-triol]	0.85	23.2
CCOc1ccc(Cc2cc([C@@H]3O[C@H](SC)[C@@H](O)[C@H](O)[C@H]3O)c3c(c2Cl)OCO3)cc1 [Compound E051, (2S,3R,4R,5S,6R)-2-(7-Chloro-6-(4-ethoxybenzyl)benzo[d][1,3]dioxol-4-yl)-6-(methylthio)tetrahydro-2H-pyran-3,4,5-triol]	0.49	62.4
Cc1ccc(Cc2cc([C@@H]3O[C@H](CO)[C@@H](O)[C@H](O)[C@H]3O)c3c(c2Cl)CCCO3)cc1 [Compound E052, (2S,3R,4R,5S,6R)-2-(5-Chloro-6-(4-methylbenzyl)chroman-8-yl)-6-(hydroxymethyl)tetrahydro-2H-pyran-3,4,5-triol]	1.1	9.2
OC[C@H]1O[C@@H](c2cc(Cc3cc4ccccc4s3)c(Cl)c3c2OCO3)[C@H](O)[C@@H](O)[C@@H]1O [Compound E053, (2S,3R,4R,5S,6R)-2-(6-(Benzo[b]thiophen-2-ylmethyl)-7-chlorobenzo[d][1,3]dioxol-4-yl)-6-(hydroxymethyl)tetrahydro-2H-pyran-3,4,5-triol]	1.5	41
OC[C@H]1O[C@@H](c2cc(Cc3ccc(-c4ccc(F)cc4)s3)c(Cl)c3c2OCCO3)[C@H](O)[C@@H](O)[C@@H]1O [Compound E054, (2S,3R,4R,5S,6R)-2-(8-Chloro-7-((5-(4-fluorophenyl)thiophen-2-yl)methyl)-2,3-dihydrobenzo[b][1,4]dioxin-5-yl)-6-(hydroxymethyl)tetrahydro-2H-pyran-3,4,5-triol]	1.1	125
OC[C@H]1O[C@@H](c2cc(Cc3cc4ccccc4s3)c(Cl)c3c2CCO3)[C@H](O)[C@@H](O)[C@@H]1O [Compound E055, (2S,3R,4R,5S,6R)-2-(6-(Benzo[b]thiophen-2-ylmethyl)-7-chloro-2,3-dihydrobenzofuran-4-yl)-6-(hydroxymethyl)tetrahydro-2H-pyran-3,4,5-triol]	1.4	148
OC[C@H]1O[C@@H](c2cc(Cc3cc4ccccc4s3)c(Cl)c3c2OCCO3)[C@H](O)[C@@H](O)[C@@H]1O [Compound E056, (2S,3R,4R,5S,6R)-2-(7-(Benzo[b]thiophen-2-ylmethyl)-8-chloro-2,3-dihydrobenzo[b][1,4]dioxin-5-yl)-6-(hydroxymethyl)tetrahydro-2H-pyran-3,4,5-triol]	2.2	14
CCc1ccc(Cc2cc([C@@H]3O[C@H](CO)[C@@H](O)[C@H](O)[C@H]3O)c3c(c2Br)CCCC3)cc1 [Compound E057, (2S,3R,4R,5S,6R)-2-(4-Bromo-3-(4-ethylbenzyl)-5,6,7,8-tetrahydronaphthalen-1-yl)-6-(hydroxymethyl)tetrahydro-2H-pyran-3,4,5-triol]	0.86	11
CCOc1ccc(Cc2cc([C@@H]3O[C@H](CO)[C@@H](O)[C@H](O)[C@H]3O)c3c(c2Br)CCCC3)cc1 [Compound E058, (2S,3R,4R,5S,6R)-2-(4-Bromo-3-(4-ethoxybenzyl)-5,6,7,8-tetrahydronaphthalen-1-yl)-6-(hydroxymethyl)tetrahydro-2H-pyran-3,4,5-triol]	0.87	17.1
CCOc1ccc(Cc2cc([C@@H]3O[C@H](CO)[C@@H](O)[C@H](O)[C@H]3O)c3c(c2Cl)SCC3)cc1 [Compound E059, (2S,3R,4R,5S,6R)-2-(7-Chloro-6-(4-ethoxybenzyl)-2,3-dihydrobenzo[b]thiophen-4-yl)-6-(hydroxymethyl)tetrahydro-2H-pyran-3,4,5-triol]	1.1	95.1
OC[C@H]1O[C@@H](c2cc(Cc3ccc(C4CC4)cc3)c(Cl)c3c2CCS3)[C@H](O)[C@@H](O)[C@@H]1O [Compound E060, (2S,3R,4R,5S,6R)-2-(7-Chloro-6-(4-cyclopropylbenzyl)-2,3-dihydrobenzo[b]thiophen-4-yl)-6-(hydroxymethyl)tetrahydro-2H-pyran-3,4,5-triol]	0.67	40.9
